Key:
COX-2 = COX-2 (Mus musculus (Mouse), UniProt Q05769); assay: Evaluation of COX-2 activity: PGE2 production in LPS-stimulated J774 cells; assay type: cell-based, murine; details: J774 cells stimulated 24 hours with LPS 10 μg/mL; PGE2 by radio-immunological assay; read-out: Cyclooxygenase inhibition COX-2 IC50
Method: The murine monocyte/macrophage cell line J774 is grown in Dulbecco's modified Eagle's medium (DMEM), enriched with glutamine (2 mM), HEPES (25 mM), penicillin (100 u/mL), streptomycin (100 μg/mL), 10% of fetal bovine serum (FBS) and 1.2% of sodium pyruvate. […] Just before the experiments, the culture medium is replaced with fresh medium without FBS to avoid interference during the radio-immunological phase and the cells are stimulated as described below.
The supernatants are collected for evaluating, by means of radio-immunological assays, the amount of PGE2 produced.
In each group of experiments, wells were used in triplicate for the different treatment conditions. […] The data were evaluated using the sigmoidal dose-response equation (variable slope) (GraphPad software). IC50 and the 95% precision intervals were calculated with the program GraphPad Instat (GraphPad software).

[1] = test system: isolated rings of thoracic aorta; assay: Evaluation of release of NO: vasorelaxing activity on endothelium-denuded aortic rings contracted with KCl; set-up: species or system rat; details: for IC50 / Emax: Rattus norvegicus; for IC50: read-out: NO release properties pIC50 (vasorelaxing potency) (converted); for Emax: relative to contractile tone induced by 20 mM KCl, 1 nM-10 μM, read-out: NO release properties Emax (maximum vasorelaxing effect); for vasorelaxing effect in the presence of ODQ: ODQ 1 μM, guanylate cyclase inhibitor
Method: The activity of the compounds was evaluated on isolated rings of thoracic aorta of normotensive male Wistar rats (250-350 g). After light anaesthesia with ether, the rats were sacrificed by cervical dislocation and exsanguination. The aortas were immediately excised, extraneous tissues were removed and the endothelial layer was removed by gently rubbing the surface with a hypodermic needle. Rings of aorta with a width of 5 mm were suspended, with a preload of 2 g, in 20-ml organ baths, containing a solution of “Tyrode” (composition of the saline solution in mM: NaCl 136.8; KCl 2.95; CaCl2 1.80; MgSO4 1.05; NaH2PO4 0.41; NaHCO3 11.9; glucose 5.5), thermostatically controlled at 37° C. and kept in an atmosphere of O2 (95%) and CO2 (5%). […] were recorded by means of an isometric transducer (FTO3 Erba), connected to a microdynamometer (Buxco Electronics).
60 minutes after preparation, removal of the endothelium was confirmed by acetylcholine (ACH) (10 μM) treatment of the vascular rings pre-contracted with KCl (20 mM). Relaxation of less than 10% of the contraction induced by KCl was considered as representative of acceptable removal of the endothelial layer, whereas organs displaying relaxation ≧10% were discarded. 40 minutes after confirmation of complete removal of the endothelium, the aortas were contracted by treatment with a single dose of KCl (20 mM) and after the contraction reached a stable plateau, increasing cumulative concentrations (with progressive increments of 3 times) of the test compounds (1 nM-10 μM) were added. It was found from preliminary experiments that the contraction induced by KCl (20 mM) remained stable in a tonic state for at least 40 minutes. The same experiments were performed in the presence of a well-known inhibitor of guanylate cyclase: ODQ 1 μM, which was incubated in aorta preparations after confirmation of removal of the endothelium.
Analysis of the results. The vasorelaxing activity was evaluated as a percentage (%) relative to the contractile tone induced by 20 mM KCl. The pharmacodynamic efficacy parameter (Emax) corresponds to the maximum vasorelaxing effect induced by the molecule tested, expressed as percentage relative to the contractile tone induced by 20 mM KCl. When the limit concentration of 10 μM (the highest concentration administered) of the test compounds has not reached the maximum effect, the efficacy parameter (Emax) corresponds to the vasorelaxing effect induced by the limit concentration (expressed as percentage relative to the contractile tone induced by 20 mM KCl). The pharmacodynamic parameter of potency of the compounds was expressed as pIC50 calculated as the negative logarithm of the molar concentration of test compound that reduces the contractile tone induced by 20 mM KCl by half. […] The parameters of efficacy and potency were expressed as mean±standard error, for 5-10 experiments. The experimental data were analysed by the program GraphPad Prism 3.0.

[2] = test system: mouse abdominal contraction (writhing) induced by acetic acid; assay: Abdominal constriction test induced by acetic acid; assay type: in vivo
Method: Male Swiss albino mice (23-25 g) and Wistar rats (150-200 g) were used.
The antinociceptive activity was determined by the mouse abdominal contraction test using acetic acid (0.6%), which induces writhing, according to Koster's method (Fed. Proc., 1959, 18, 412-418). The number of stretching movements was counted for 10 minutes, starting 5 minutes after injection of acetic acid. The results relating to analgesic activity in the abdominal constriction test with representative compounds of the invention are shown in Table 10.
The test was carried out using 10 animals in the treated group and 20 in the control group (CMC); all the compounds were administered per os with the exception of the compound of Example 8, which was administered i.p.

[3] = concentration reducing contractile tone induced by 20 mM KCl by half

COX-2, sequence (Q05769 18-604): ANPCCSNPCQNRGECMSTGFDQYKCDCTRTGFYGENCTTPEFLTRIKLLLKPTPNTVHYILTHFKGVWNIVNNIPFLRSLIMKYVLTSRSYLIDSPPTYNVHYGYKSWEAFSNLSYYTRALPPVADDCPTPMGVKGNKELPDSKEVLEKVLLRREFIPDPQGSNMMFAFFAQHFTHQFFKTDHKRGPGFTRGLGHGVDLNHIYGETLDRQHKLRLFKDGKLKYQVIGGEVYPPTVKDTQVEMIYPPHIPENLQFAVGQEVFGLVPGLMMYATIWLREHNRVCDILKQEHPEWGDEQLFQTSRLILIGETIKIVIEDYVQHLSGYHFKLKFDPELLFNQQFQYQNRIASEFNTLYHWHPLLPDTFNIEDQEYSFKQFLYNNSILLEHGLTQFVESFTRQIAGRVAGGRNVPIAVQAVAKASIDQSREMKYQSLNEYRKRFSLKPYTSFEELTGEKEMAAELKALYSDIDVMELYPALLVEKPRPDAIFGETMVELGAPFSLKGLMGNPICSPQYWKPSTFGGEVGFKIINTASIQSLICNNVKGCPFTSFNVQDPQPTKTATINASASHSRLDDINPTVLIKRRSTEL

Structure (SMILES)	IC50 (COX-2) [nM]	Emax [1] [%]	melting point [°C]	further results
Cc1c(C(N)C(=O)OCCO[N+](=O)[O-])cc(-c2ccc(S(C)(=O)=O)cc2)n1-c1ccc(F)cc1 (racemic) [Example 16, (R,S)-2-(Nitrooxy)ethyl-[2-amino-2-[1-(4-fluorophenyl)-2-methyl-5-(4-methylsulphonylphenyl)-1H-pyrrol-3-yl]]-acetate]	740	80 ± 7	–	IC50 [1, 3]: 1120 nM; N writhes ([2]; 40 mg/kg per os): 24.9 ± 3.0
Cc1c(C(N)C(=O)OCCCO[N+](=O)[O-])cc(-c2ccc(S(C)(=O)=O)cc2)n1-c1ccc(F)cc1 (racemic) [Example 18, (R,S)-3-(Nitrooxy)propyl-[2-amino-2-[1-(4-fluorophenyl)-2-methyl-5-(4-methylsulphonylphenyl)-1H-pyrrol-3-yl]]-acetate]	820	84 ± 2	–	vasorelaxing effect in the presence of ODQ [1]: not fully antagonized by ODQ; IC50 [1, 3]: 2190 nM; N writhes ([2]; 3 mg/kg per os): 26.9 ± 2.6; N writhes ([2]; 10 mg/kg per os): 21.3 ± 2.5; N writhes ([2]; 20 mg/kg per os): 18.1 ± 3.0; N writhes ([2]; 40 mg/kg per os): 13.5 ± 2.8
Cc1c(C(N)C(=O)OCCCCO[N+](=O)[O-])cc(-c2ccc(S(C)(=O)=O)cc2)n1-c1ccc(F)cc1 (racemic) [Example 20, (R,S)-4-(Nitrooxy)butyl-[2-amino-2-[1-(4-fluorophenyl)-2-methyl-5-(4-methylsulphonylphenyl)-1H-pyrrol-3-yl]]-acetate]	1000	93 ± 1	108	vasorelaxing effect in the presence of ODQ [1]: not fully antagonized by ODQ; IC50 [1, 3]: 1550 nM; N writhes ([2]; 40 mg/kg per os): 19.8 ± 2.4
Cc1c(CC(=O)NC(CCO[N+](=O)[O-])C(=O)O)cc(-c2ccc(S(C)(=O)=O)cc2)n1-c1ccc(F)cc1 (racemic) [Example 32, (R,S)-4-(Nitroxy)-2-[[1-(4-fluorophenyl)-2-methyl-5-(4-methylsulphonylphenyl)-1H-pyrrol-3-yl]acetamido]butanoic Acid]	1600	42 ± 9	–	N writhes ([2]; 10 mg/kg per os): 22.8 ± 3.0; N writhes ([2]; 20 mg/kg per os): 14.6 ± 2.7
Cc1c(CC(=O)OCCO)cc(-c2ccc(S(C)(=O)=O)cc2)n1-c1ccc(F)cc1 [Example 2-II, 2-Hydroxyethyl-[2-(1-(4-fluorophenyl)-2-methyl-5-(4-methylsulphonylphenyl)-1H-pyrrol-3-yl)]acetate]	89	–	129 to 131	–
Cc1c(CC(=O)OCCO)cc(-c2ccc(S(C)(=O)=O)cc2)n1-c1cccc(F)c1 [Example 3-II]	85	–	115	–
COc1ccc(-n2c(-c3ccc(S(C)(=O)=O)cc3)cc(CC(=O)OCCO)c2C)cc1 [Example 4-II, 2-(Hydroxy)ethyl-[1-(4-methoxyphenyl)-2-methyl-5-(4-methylsulphonylphenyl)-1H-pyrrol-3-yl]-acetate]	1100	–	105	–
Cc1c(CC(=O)OCCCO[N+](=O)[O-])cc(-c2ccc(S(C)(=O)=O)cc2)n1-c1cccc(F)c1 [Example 8, 3-(Nitroxy)propyl-[1-(3-fluorophenyl)-2-methyl-5-(4-methylsulphonylphenyl)-1H-pyrrol-3-yl]-acetate]	7	82 ± 1	–	IC50 [1, 3]: 162 nM; N writhes ([2]; 20 mg/kg i.p.): 16.9 ± 2.4
Cc1c(CC(=O)OCCCCO[N+](=O)[O-])cc(-c2ccc(S(C)(=O)=O)cc2)n1-c1ccc(F)cc1 [Example 11, 4-(Nitrooxy)butyl-2-[1-(4-fluorophenyl)-2-methyl-5-(4-methylsulphonylphenyl)-1H-pyrrol-3-yl]acetate]	–	40 ± 8	102 to 104	–
COc1ccc(-n2c(-c3ccc(S(C)(=O)=O)cc3)cc(CC(=O)OCCCCO[N+](=O)[O-])c2C)cc1 [Example 13, 4-(Nitrooxy)butyl-2-[1-(4-methoxyphenyl)-2-methyl-5-(4-methylsulphonylphenyl)-1H-pyrrol-3-yl]acetate]	550	–	109	–
COc1ccc(-n2c(-c3ccc(S(C)(=O)=O)cc3)cc(CC(=O)OCCCCO)c2C)cc1 [Example 13-II, 4-(Hydroxy)butyl-2-[1-(4-methoxyphenyl)-2-methyl-5-(4-methylsulphonylphenyl)-1H-pyrrol-3-yl]acetate]	1100	–	–	N writhes ([2]; 40 mg/kg per os): 14.7 ± 2.5
Cc1c(CC(=O)NCCO[N+](=O)[O-])cc(-c2ccc(S(C)(=O)=O)cc2)n1-c1ccc(F)cc1 [Example 23, N-[(2-Nitroxy)ethyl]-2-[1-(4-fluorophenyl)-2-methyl-5-(4-methylsulphonylphenyl)-1H-pyrrol-3-yl]acetamide]	240	68 ± 6	135	IC50 [1, 3]: 4900 nM; NO release properties pIC50 (vasorelaxing potency) [1, 3]: 5.31 ± 0.05
Cc1c(CC(=O)NCCO)cc(-c2ccc(S(C)(=O)=O)cc2)n1-c1ccc(F)cc1 [Example 23-II, N-[(2-Hydroxy)ethyl]-2-[1-(4-fluorophenyl)-2-methyl-5-(4-methylsulphonylphenyl)-1H-pyrrol-3-yl]acetamide]	300	–	99	–
Cc1c(CC(=O)NCCCO)cc(-c2ccc(S(C)(=O)=O)cc2)n1-c1ccc(F)cc1 [Example 26-II, N-[(3-Hydroxy)propyl]-2-[1-(4-fluorophenyl)-2-methyl-5-(4-methylsulphonylphenyl)-1H-pyrrol-3-yl]acetamide]	68	–	105	–
Cc1c(CC(=O)NCCCO[N+](=O)[O-])cc(-c2ccc(S(C)(=O)=O)cc2)n1-c1cccc(F)c1 [Example 27, N-[(3-Nitroxy)propyl]-2-[1-(3-fluorophenyl)-2-methyl-5-(4-methylsulphonylphenyl)-1H-pyrrol-3-yl]acetamide]	–	–	125	–
Cc1c(CC(=O)NCCCO)cc(-c2ccc(S(C)(=O)=O)cc2)n1-c1cccc(F)c1 [Example 27-II, N-[(3-Hydroxy)propyl]-2-[1-(3-fluorophenyl)-2-methyl-5-(4-methylsulphonylphenyl)-1H-pyrrol-3-yl]acetamide]	14	–	102	–
Cc1c(CCOCCO)cc(-c2ccc(S(C)(=O)=O)cc2)n1-c1cccc(F)c1 [Example 38-II]	46	–	–	N writhes ([2]; 20 mg/kg per os): 26.8 ± 3.2; N writhes ([2]; 40 mg/kg per os): 17.3 ± 3.5
Cc1c(CCOCCO)cc(-c2ccc(S(C)(=O)=O)cc2)n1-c1ccc(F)c(F)c1 [Example 39-II]	420	–	138 to 140	N writhes ([2]; 20 mg/kg per os): 24.8 ± 3.0
Cc1c(CCOCCCO)cc(-c2ccc(S(C)(=O)=O)cc2)n1-c1ccc(F)cc1 [Example 41-II, 3-[2-[2-(1-(4-Fluorophenyl)-2-methyl-5-(4-methylsulphonylphenyl)-1H-pyrrol-3-yl)]ethoxy]propanol]	940	–	100 to 102	–

From US9162979B2, “1,5-Diary1-2-alkylpyrrole-3-substituted nitro esters, selective COX-2 inhibitors and nitric oxide donors” (ROTTAPHARM BIOTECH S.R.L., priority 2010, dated 2015)
